Assay results taken from patent US11174271B2, “6-membered uracil isosteres” (CV6 Therapeutics (NI) Limited, priority 2016, dated 2021).
One block for each molecule: values may come before it.

Experiments:
[1] = test system: colorectal (HCT116), breast (MCF-7) and non-small cell lung (H1299, A549, H358 and H460) cell line models; test: Colony forming assay; assay type: cell-based; settings: increasing concentrations of FUdR between 0.5 and 2.5 μmol/L; all cell lines evaluated
Procedure: Colony forming assay showing the ability of colon (SW620, HCT116), non-small cell lung (A549, H460, H1299 and H358) and breast (MCF7) cancer cells to survive and proliferate following transient 24 hour exposure to test compounds, FUdR and combinations are determined. Specifically, cells are seeded at densities between 50 and 100 cells/well in 24-well plates. […] After 24 hours, drug is removed, cells are rinsed and allowed to outgrow for 10-14 days. At the conclusion of the outgrowth, cells are fixed in 60% ice cold methanol and stained with 0.1% crystal violet, scanned and counted. Data is presented as percentage of untreated controls (mean±SD). Fraction affected and combination indexes are calculated according to the method of Chou and Talalay where <1 is indicative of a synergistic drug interaction.
Colony forming assays are performed to evaluate the effectiveness of test compounds alone and in combination with the fluoropyrimidine thymidylate synthase (TS) inhibitor fluorodeoxyuridine (FUdR) at reducing cancer cell viability in colorectal (HCT116), breast (MCF-7) and non-small cell lung (H1299, A549, H358 and H460) cell line models. […] In colorectal cancer cells, concentrations of test compounds ranging e.g., from 3.1 μmol/L to 50 μmol/L are combined with 0.5 μmol/L FUdR in HCT116 cells and 1 μmol/L FUdR in SW620 cells.

[2] = test system: colorectal (HCT116 and SW620) cell line models; test: MTS growth inhibition assay; assay type: cell-based; settings: increasing concentrations of 5-FU between 0 and 100 μmol/L; both colorectal cancer cell lines
Procedure: The Cell Titer AQueous MTS assay (Promega) is carried out according to the manufacturers guidelines. […] The combination effect is determined by the combination index (CI) method utilizing Calcusyn software (Biosoft, Ferguson, Mo.). Fraction affected (FA) is calculated from the percent growth inhibition: FA=[…]. CI values <1, synergism; 1-1.2, additive and >1.2, antagonism.
Test compounds are evaluated for their antitumor activity in colorectal cancer cells using the MTS growth inhibition assay. HCT116 and SW620 cells are exposed to increasing concentrations of each agent for 72 hours and growth inhibition is directly compared to vehicle-treated controls. The NSCLC cell lines A549 and H1299 are exposed to increasing concentrations of each agent for 72 hours and growth inhibition is directly compared to vehicle-treated controls.
MTS growth inhibition assays are performed to evaluate the effectiveness of the test compounds alone and in combination with the fluoropyrimidine thymidylate synthase (TS) inhibitor 5-fluorouracil (5-FU) at inhibiting the growth of colorectal (HCT116 and SW620) cell line models. […] Simultaneous treatment with increasing concentrations of 5-FU and a test compound at fixed concentrations of 25 μmol/L is determined.

[3] = molecular target: T1, recombinant human deoxyuridine nucleotidohydrolase (dUTPase) (Homo sapiens, UniProt P33316); test: fluorescence-based dUTPase inhibition assay (DNA polymerase-based dUTP detection); assay type: biochemical; settings: mean across three concentrations, typically 100, 50 and 25 μmol/L, compared to the in-run positive control
T1 construct: made in house
T1 sequence (P33316 1-164 isoform P33316-2): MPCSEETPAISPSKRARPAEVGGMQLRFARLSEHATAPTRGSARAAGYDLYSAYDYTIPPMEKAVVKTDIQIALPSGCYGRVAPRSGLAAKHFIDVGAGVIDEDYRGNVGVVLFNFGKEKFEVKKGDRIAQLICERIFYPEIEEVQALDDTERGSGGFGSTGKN
Source text: Recombinant human deoxyuridine nucleotidohydrolase (dUTPase) is expressed and purified as described in Ladner R D, Carr S A, Huddleston M J, McNulty D E, Caradonna S J. J Biol Chem. 1996 Mar. 29; 271(13):7752-7. All drugs stocks are aliquoted and diluted as appropriate prior to use. The oligonucelotide primer, templates and fluorophore- and quencher-labeled detection probes are synthesized by Integrated DNA Technologies (Coralville, Iowa), subjected to polyacrylamide gel electrophoresis purification and reconstituted in Omnipur sterile nuclease-free water (EMD Chemicals USA, Gibbstown N.J.) at a stock concentration of 100 μmol/L. The two non-emissive (dark) quenching molecules incorporated into the detection probes include the Iowa black fluorescein quencher (IBFQ; absorption max 531 nm) and ZEN (non-abbreviation; absorption max 532 nm). The fluorescent label utilized is 6-FAM (5′-carboxyfluorescein; excitation max.=494 nm, emission max.=520 nm). Probes are further diluted to a working stock of 10 μmol/L and aliquoted to avoid repeated freeze/thaw cycles. AmpliTaq Gold DNA Polymerase, GeneAmp 10×PCR Buffer 2, MgCl2 and MicroAmp Optical 96-well Reaction Plates are purchased from Applied Biosystems (Carlsbad, Calif.). dNTPs are purchased individually at stock concentrations of 100 mmol/L from New England Biolabs at HPLC-certified >99% purity (Ipswich, Mass.).
Reaction mixtures contained primer, probe and template at an equimolar final concentration of 0.4 μmol/L. Magnesium chloride (MgCl2) is included at a final concentration of 2 mmol/L. Non-limiting dNTPs are included in the reaction mix in excess at a final concentration of 100 μmol/L (dUTP/dTTP is excluded). AmpliTaq Gold DNA polymerase is added at 0.875 U/reaction, 2.5 μl of 10×PCR buffer 2 added and nuclease-free ddH2O added to a final reaction volume of 25 μl. For dUTP inhibition analysis, the volume of ddH2O is further modified to accommodate an additional 1 μl of dUTPase (10 ng/μl) and 1 μl of inhibitor or DMSO control. Thermal profiling and fluorescence detection is performed using a customized thermal program on board a Roche Lightcycler LC480 Instrument II. For analysis of dNTPs, the thermal profile consisted of an 8 min 37° C. step followed by a 10 min 95° C. step to ‘hot-start’ the Taq polymerase and a primer extension time of up to 30 min at 60° C. Raw fluorescence spectra for 6-FAM is measured at specified time intervals to follow assay progression on board a Roche LightCycler 480 Software Version 1.5 and exported and analyzed in Microsoft Excel (Microsoft, Redmond Wash.) and Prism (GraphPad Software, La Jolla Calif.). Fluorescence values for blank reactions (limiting dNTP omitted) are subtracted to give normalized fluorescence units (NFU) to account for background fluorescence.
Test compounds were screened in a fluorescence-based assay. The assay employed a DNA polymerase-based approach utilizing an oligonucleotide template with 3 distinct regions: a 3′ primer binding region, a mid-template dUTP/thymidine triphosphate (TTP) detection region and a 5′ 6-[…] (FAM)-labeled probe binding region that incorporates a black hole quenching moiety. During the reaction, the probe and primer hybridize to the oligonucleotide template to form the template:primer:probe complex. When Taq polymerase binds to the primer in the TPP complex and dUTP is present, successful extension of the nascent strand occurs and the inherent 5′ to 3′ exonuclease activity of Taq polymerase cleaves and displaces the 6-FAM-labeled probe in a 5′ to 3′ direction, releasing the 6-FAM fluorophore from its proximity to the […]. This displacement effectively disrupts the Förster resonance energy transfer (FRET) and the resulting fluorescence detected upon excitation is directly proportional to the amount of the dUTP available in the assay for incorporation. […]

[4] = molecular target: T1, recombinant human deoxyuridine nucleotidohydrolase (dUTPase); test: as above; assay type: biochemical; settings: 5 ng recombinant dUTPase, 50 pmols dUTP, 37° C. for 8 mins

Structure (SMILES): O=c1[nH]c(=O)n([C@H]2C[C@H](O)[C@@H](CO)O2)cc1F [FUdR, fluorodeoxyuridine]
colonies formed [1]: dose-dependent decreases in colonies formed

Structure (SMILES): O=c1[nH]cc(F)c(=O)[nH]1 [Example 5-FU, 5-fluorouracil]
growth inhibition [2]: dose-dependent increases in growth inhibition

% relative inhibition vs. positive control [3]: 149% | IC50 [4]: 500 nM
Structure (SMILES): C[C@@H](NS(=O)(=O)CCCOCN1CCC(=O)NC1=O)c1cccc(OC2CCCC2)c1 [Example 93, (R)—N-(1-(3-(cyclopentyloxy)phenyl)ethyl)-3-((2,4-dioxotetrahydropyrimidin-1(2H)-yl)methoxy)propane-1-sulfonamide]
